Results: ChEMBL document CHEMBL1153774, “Chemical constituents from the aerial parts of Artemisia minor” (J Nat Prod, 2009)

Legend:
[1] = biological target: Xanthine dehydrogenase/oxidase (Homo sapiens, UniProt P47989); experiment: Inhibition of XOD
[2] = biological target: T1, Tyrosine-protein phosphatase non-receptor type 1 (Homo sapiens, UniProt P18031); experiment: Inhibition of human recombinant PTP1B after 10 mins
T1 sequence (P18031 whole entry): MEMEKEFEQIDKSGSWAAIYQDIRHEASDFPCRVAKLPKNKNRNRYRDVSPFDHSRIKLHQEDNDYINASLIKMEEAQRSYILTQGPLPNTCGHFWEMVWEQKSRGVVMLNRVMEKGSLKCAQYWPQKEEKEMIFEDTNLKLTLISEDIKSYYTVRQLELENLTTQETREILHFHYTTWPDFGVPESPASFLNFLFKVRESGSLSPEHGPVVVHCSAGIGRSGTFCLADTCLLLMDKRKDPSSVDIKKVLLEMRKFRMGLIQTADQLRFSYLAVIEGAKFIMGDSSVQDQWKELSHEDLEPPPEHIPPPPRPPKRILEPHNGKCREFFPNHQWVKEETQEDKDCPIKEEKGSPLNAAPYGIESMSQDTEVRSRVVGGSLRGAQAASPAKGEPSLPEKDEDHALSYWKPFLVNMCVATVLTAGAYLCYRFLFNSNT

HepG2 = experiment: Cytotoxicity against human HepG2 cells by SRB assay; assay type: functional

Chain of Xanthine dehydrogenase/oxidase (P47989 whole entry): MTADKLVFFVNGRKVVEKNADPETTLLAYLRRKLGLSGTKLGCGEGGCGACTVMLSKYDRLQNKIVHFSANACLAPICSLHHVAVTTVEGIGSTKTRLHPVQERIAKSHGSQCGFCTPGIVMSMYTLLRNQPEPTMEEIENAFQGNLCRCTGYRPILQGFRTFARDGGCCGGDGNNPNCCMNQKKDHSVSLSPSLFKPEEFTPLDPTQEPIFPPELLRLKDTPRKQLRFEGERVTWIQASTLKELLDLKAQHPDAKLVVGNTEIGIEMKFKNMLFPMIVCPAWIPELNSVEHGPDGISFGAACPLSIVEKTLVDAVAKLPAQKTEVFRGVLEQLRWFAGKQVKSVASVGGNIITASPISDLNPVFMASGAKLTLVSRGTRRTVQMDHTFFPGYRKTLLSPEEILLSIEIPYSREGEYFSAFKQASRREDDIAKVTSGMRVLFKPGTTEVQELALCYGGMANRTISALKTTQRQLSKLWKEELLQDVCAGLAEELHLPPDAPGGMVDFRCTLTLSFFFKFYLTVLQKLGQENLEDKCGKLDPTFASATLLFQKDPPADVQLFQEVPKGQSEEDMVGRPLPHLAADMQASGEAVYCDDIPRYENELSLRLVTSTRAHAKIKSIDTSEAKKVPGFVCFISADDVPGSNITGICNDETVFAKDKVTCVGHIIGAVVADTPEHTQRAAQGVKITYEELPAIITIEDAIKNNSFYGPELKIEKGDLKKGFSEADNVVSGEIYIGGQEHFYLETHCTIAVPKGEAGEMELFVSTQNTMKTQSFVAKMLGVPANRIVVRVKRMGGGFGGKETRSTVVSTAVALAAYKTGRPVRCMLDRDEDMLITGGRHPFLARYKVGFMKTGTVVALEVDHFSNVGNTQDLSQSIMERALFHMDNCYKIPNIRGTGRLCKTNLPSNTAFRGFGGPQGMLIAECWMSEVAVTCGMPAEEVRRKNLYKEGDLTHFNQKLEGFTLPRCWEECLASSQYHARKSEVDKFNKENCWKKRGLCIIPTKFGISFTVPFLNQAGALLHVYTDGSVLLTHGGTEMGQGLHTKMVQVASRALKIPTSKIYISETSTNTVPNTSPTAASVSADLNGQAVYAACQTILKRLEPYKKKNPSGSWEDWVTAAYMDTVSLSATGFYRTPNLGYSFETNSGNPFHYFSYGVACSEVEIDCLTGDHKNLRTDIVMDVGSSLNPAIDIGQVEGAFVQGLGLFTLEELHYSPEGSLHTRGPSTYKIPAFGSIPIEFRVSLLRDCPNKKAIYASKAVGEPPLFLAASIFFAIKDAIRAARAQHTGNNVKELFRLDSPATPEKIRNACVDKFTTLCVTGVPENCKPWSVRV

| SMILES | IC50 [1] | GI50 (HepG2) | also measured |
| --- | --- | --- | --- |
| COc1cc2cc(-c3cc4cc(O)c(O)cc4oc3=O)c(=O)oc2c(OC)c1O [ARTEMINORIN C] | 7.71 µM | – | – |
| O=C(O)/C=C/c1ccc(O)c(O)c1 [CAFFEIC ACID] | – | – | IC50 [2]: 3.06 µM |
| CCOC(=O)/C=C/c1ccc(O)c(O)c1 [ETHYL CAFFEATE] | – | 17.2 µM | – |
| O=c1cc(-c2ccc(O)c(O)c2)oc2cc(O)cc(O)c12 [LUTEOLIN] | 11.5 µM | – | – |
| CC(=O)O[C@H]1C(=O)[C@@]2(C)[C@H]([C@H](OC(=O)c3ccccc3)[C@]3(O)C[C@H](OC(=O)[C@H](O)[C@@H](NC(=O)c4ccccc4)c4ccccc4)C(C)=C1C3(C)C)[C@]1(OC(C)=O)CO[C@@H]1C[C@@H]2O [PACLITAXEL] | – | 0.059 µM | – |
